{
  "source": "patent US4708966A",
  "about": "“Novel anti-inflammatory agents, pharmaceutical compositions and methods for reducing inflammation” (The Procter & Gamble Company, priority 1986, dated 1987)",
  "key": {"[1]": {"system": "adjuvant arthritis (modified Freund's adjuvant)", "experiment": "Adjuvant Arthritis - Therapeutic", "assay_type": "in vivo, Male Sprague-Dawley rats", "settings": "for Body Weights % Increase / Bone Resorption % Inhibition / Paw Volume % Decrease: 2 x/day, days 20 through 28", "procedure": "Adjuvant Arthritis Methodology\nMale Sprague-Dawley rats weighing 167-170 gm are allowed to acclimate to the laboratory for at least 3 days. Ten rats are then assigned to the healthy control group and the remaining rats are assigned to the arthritic group. On day 0, the rats in the arthritic group are injected subcutaneously in the middle of their tail with a modified Freund's adjuvant (MFA) at a dosage of 0.05 ml/100 gm body weight. The MFA is made by grinding Mycobacterium butyricum (Mb) and then mixing with mineral oil at a concentration of 10 mg Mb/ml of mineral oil. This is mixed in an Omni mixer for 45 minutes.\nPaw volumes and body weights are determined on days -1, 6, 13, 19, 26, and 29. On day 19, paw volume changes from day -1 are determined for the arthritic group. The rats with paw volume changes≥0.50 ml but ≤2.50 ml are randomized by paw volume changes into the treatment groups on day 20. […] On day 29, two representative rats from each treatment group are photographed, paw volumes and body weights are determined, and then the rats are sacrificed with CO2 and x-rays are taken.\nThe radiographs are used to grade bone resorption. Bone resorption is graded in 20 areas of the fore and hind paws. The areas for grading on the hind paw are: distal femur end, proximal tibia and tibula, distal end of the tibia and the small bone under the tibia, calcaneous, tarsus, and metatarsus. The areas on the fore paws are: radius, ulna, carpus, and metacarpus. Each area is given a grade of 0 (no resorption) or 1 (resorption) for possible grade of 20 of each animal."}, "[2]": {"system": "cyclooxygenase (\"COX\")", "experiment": "inhibition of cyclooxygenase in arachidonic acid metabolism", "assay_type": "biochemical"}, "[3]": {"experiment": "antioxidant and free radical scavenging activity"}, "[4]": {"experiment": "toxicity (acute oral toxicity)", "assay_type": "in vivo", "settings": "test animals"}, "[5]": {"system": "inflammation", "experiment": "anti-inflammatory activity in animal models of inflammation", "assay_type": "in vivo", "procedure": "(§1) In order to determine and assess pharmacological activity, testing of these compounds in animals is carried out using various assays known to those skilled in the art. […] Examples of such known tests include the carrageenan rat edema test, the oxazolone-induced inflamed mouse ear test, and the arachidonic acid-induced inflamed mouse ear test. Anti-pyretic acitivity may be tested using art-known rat models, and analgesic acitivty may be tested in art-known models such as the acetylcholine model in mice, the Randall-Selitto model in rats, and the hot-plate test in mice. Another useful art-known test is the adjuvant arthritis test which is a useful model for assessing anti-inflammatory activity and anti-resorptive activity in a chronic, rather than acute, model.\nThese and other appropriate tests for pharmacological activity are disclosed and/or referred to in U.S. Pat. No. 4,130,666, issued Dec. 19, 1978 to Moore; U.S. Pat. No. 4,440,784, issued Apr. 3, 1984 to Katsumi et al.; Japanese patent application No. 85/54315, published Mar. 28, 1985 by Katsumi et al.; European Patent Application Publication No. 59,090, published Sept. 1, 1982 by Yamanouchi Pharmaceutical Co., Ltd.; \"Prostaglandin and Leukotriene Synthesis in Mouse Ears Inflamed by Arachidonic Acid\", The Journal of Investigative Dermatology, 84, pp. 253-256 (1985); U.S. Pat. No. 4,431,656, issued Feb. […]"}, "[6]": {"experiment": "oral analgesic activity", "assay_type": "in vivo", "settings": "\"peripheral\" type, compared to aspirin", "procedure": "as §1"}, "[7]": {"experiment": "oral anti-pyretic activity", "assay_type": "in vivo", "procedure": "as §1"}, "[8]": {"system": "arachidonic acid-induced inflamed mouse ear", "experiment": "Arachidonic Acid-Induced Inflamed Mouse Ear Test", "assay_type": "in vivo, Adult male Cox ICR mice", "procedure": "Arachidonic Acid-Induced Inflamed Mouse Ear Test\nAll drugs are dissolved with arachidonic acid in the vehicle. At the end of 3 hours, animals are sacrificed by cervical dislocation and both ears are removed. A 5 mm punch biopsy is removed from both ears and is weighed to the nearest 0.1 mg on a Cahn electrobalance. Ten animals are used per group. The study usually consists of 4 to 6 groups, of which one is a control group which is treated on the left ear with only arachidonic acid in the vehicle. The results are expressed as percent inhibition of the swelling response compared to the control group. Statistical tests for significance between groups are made using a one way analysis of variance of the ear weight differences. ID50 values are determined by regression analysis."}, "[9]": {"system": "oxazolone-induced inflamed mouse ear", "experiment": "Oxazolone-Induced Inflamed Mouse Ear Test (Ox-IMET)", "assay_type": "in vivo, Adult male Cox ICR mice", "settings": "topical, 25 ul of 10% in ethanol, 24 h after challenge, vs control group, read-out: Percent Inhibition", "procedure": "Oxazolone-Induced Inflamed Mouse Ear Test (\"Ox-IMET\")\nAdult male Cox ICR mice, 25-35 g, are sensitized by applying 3% oxazolone in olive oil to the clipped abdomen of each animal using a cotton swab. One week later, the mice are challenged on the inner surface of the left ear with 3% oxazolone in aceotone. At the same time 25 ul of the test compound (10% in ethanol) is applied to the outer surface of the same ear. Twenty four hours after the challenge, the animals are sacrificed by cervical dislocation and both ears are removed. A 5 mm punch biopsy is removed from both ears and is weighed to the nearest 0.1 mg on a Cahn electrobalance. Ten animals are used per group. The study usually consists of 4 to 6 groups, of which one is a control group which is challenged on the left ear, but is not treated with a test compound. The results are expressed as percent inhibition of the swelling response compared to the control group. Statistical tests for significance between groups are made using a one way analysis of variance of the ear weight differences."}},
  "data": [
    {"molecule": "C#CCCCC(=O)c1cc(C(C)(C)C)c(O)c(C(C)(C)C)c1", "note": "[Compound 11, 4-(5'-hexynoyl)-2,6-di-t-butylphenol]", "values": [
      {"measurement": "Body Weights % Increase", "setting": "[1]; 5 mg/kg, oral", "value": 36, "unit": "%"},
      {"measurement": "Bone Resorption % Inhibition", "setting": "[1]; 5 mg/kg, oral", "value": 37, "unit": "%"},
      {"measurement": "Paw Volume % Decrease", "setting": "[1]; 5 mg/kg, oral", "value": 75, "unit": "%"},
      {"measurement": "Body Weights % Increase", "setting": "[1]; 15 mg/kg, oral", "value": 34, "unit": "%"},
      {"measurement": "Bone Resorption % Inhibition", "setting": "[1]; 15 mg/kg, oral", "value": 50, "unit": "%"},
      {"measurement": "Paw Volume % Decrease", "setting": "[1]; 15 mg/kg, oral", "value": 83, "unit": "%"},
      {"measurement": "decrease of bone resorption in arthritic animal models", "setting": "[1]; arthritic animal models", "value": "ability to decrease bone resorption"},
      {"measurement": "oral anti-arthritic activity in a rat adjuvant arthritis model", "setting": "[1]; oral, dosed therapeutically", "value": "anti-arthritic activity"},
      {"measurement": "inhibition of cyclooxygenase (COX)", "setting": "[2]", "value": "dual inhibitor"},
      {"measurement": "antioxidant and free radical scavenging activity", "setting": "[3]", "value": "antioxidant and free radical scavenging activity"},
      {"measurement": "acute oral toxicity", "setting": "[4]", "value": "very low acute oral toxicity"},
      {"measurement": "oral activity in several animal models of inflammation", "setting": "[5]", "value": "very good oral activity"},
      {"measurement": "oral analgesic activity", "setting": "[6]", "value": "superior to aspirin"},
      {"measurement": "oral anti-pyretic activity", "setting": "[7]", "value": "oral anti-pyretic activity"},
      {"measurement": "inhibition in vivo at 50 µg/ear", "setting": "[8]; Mus musculus, 50 ug/ear topical, 3 hours, read-out: Percent Inhibition at 50 ug/ear topical dose", "value": 43.9, "unit": "%"},
      {"measurement": "ID50", "setting": "[8]; topical, by regression analysis", "value": 20.7, "unit": "ug/ear"},
      {"measurement": "inhibition in vivo at 10 %", "setting": "[9]", "value": 34.1, "unit": "%"}
    ]}
  ]
}
